According to US11253517B2, “Small molecule regulators of steroid receptor coactivators and methods of use thereof” (BAYLOR COLLEGE OF MEDICINE, priority 2016, dated 2022):

How the values were obtained:
Type in all cases: cell-based
MDA-MB-468 cells [1] = assay: EC50 in MDA-MB-468 cells, 72 hours incubation; conditions: Homo sapiens
Experimental: The EC50 values of certain compounds were measured in MDA-MB-468 cells by incubating a series of concentrations of the corresponding compounds for 72 hours.
(§1) In Tables 1 and 2, “−” represents IC50 or EC50 values greater than 10 μM; “+” represents IC50 or EC50 values from greater than 1 μM to 10 μM; “++” represents IC50 or EC50 values from 0.1 μM to 1 μM; and “+++” represents IC50 or EC50 values less than 0.1 μM.

SRC-3 = molecular target: T1, SRC-3 (Homo sapiens, UniProt Q9Y6Q9); assay: SRC-3 intrinsic transcriptional activity luciferase assay in HeLa cells; conditions: pG5-LUC reporter with pBIND-SRC-3, 24 hours
T1 construct: expressed in transfected cells; host or cells: HeLa
T1 sequence (Q9Y6Q9 whole entry): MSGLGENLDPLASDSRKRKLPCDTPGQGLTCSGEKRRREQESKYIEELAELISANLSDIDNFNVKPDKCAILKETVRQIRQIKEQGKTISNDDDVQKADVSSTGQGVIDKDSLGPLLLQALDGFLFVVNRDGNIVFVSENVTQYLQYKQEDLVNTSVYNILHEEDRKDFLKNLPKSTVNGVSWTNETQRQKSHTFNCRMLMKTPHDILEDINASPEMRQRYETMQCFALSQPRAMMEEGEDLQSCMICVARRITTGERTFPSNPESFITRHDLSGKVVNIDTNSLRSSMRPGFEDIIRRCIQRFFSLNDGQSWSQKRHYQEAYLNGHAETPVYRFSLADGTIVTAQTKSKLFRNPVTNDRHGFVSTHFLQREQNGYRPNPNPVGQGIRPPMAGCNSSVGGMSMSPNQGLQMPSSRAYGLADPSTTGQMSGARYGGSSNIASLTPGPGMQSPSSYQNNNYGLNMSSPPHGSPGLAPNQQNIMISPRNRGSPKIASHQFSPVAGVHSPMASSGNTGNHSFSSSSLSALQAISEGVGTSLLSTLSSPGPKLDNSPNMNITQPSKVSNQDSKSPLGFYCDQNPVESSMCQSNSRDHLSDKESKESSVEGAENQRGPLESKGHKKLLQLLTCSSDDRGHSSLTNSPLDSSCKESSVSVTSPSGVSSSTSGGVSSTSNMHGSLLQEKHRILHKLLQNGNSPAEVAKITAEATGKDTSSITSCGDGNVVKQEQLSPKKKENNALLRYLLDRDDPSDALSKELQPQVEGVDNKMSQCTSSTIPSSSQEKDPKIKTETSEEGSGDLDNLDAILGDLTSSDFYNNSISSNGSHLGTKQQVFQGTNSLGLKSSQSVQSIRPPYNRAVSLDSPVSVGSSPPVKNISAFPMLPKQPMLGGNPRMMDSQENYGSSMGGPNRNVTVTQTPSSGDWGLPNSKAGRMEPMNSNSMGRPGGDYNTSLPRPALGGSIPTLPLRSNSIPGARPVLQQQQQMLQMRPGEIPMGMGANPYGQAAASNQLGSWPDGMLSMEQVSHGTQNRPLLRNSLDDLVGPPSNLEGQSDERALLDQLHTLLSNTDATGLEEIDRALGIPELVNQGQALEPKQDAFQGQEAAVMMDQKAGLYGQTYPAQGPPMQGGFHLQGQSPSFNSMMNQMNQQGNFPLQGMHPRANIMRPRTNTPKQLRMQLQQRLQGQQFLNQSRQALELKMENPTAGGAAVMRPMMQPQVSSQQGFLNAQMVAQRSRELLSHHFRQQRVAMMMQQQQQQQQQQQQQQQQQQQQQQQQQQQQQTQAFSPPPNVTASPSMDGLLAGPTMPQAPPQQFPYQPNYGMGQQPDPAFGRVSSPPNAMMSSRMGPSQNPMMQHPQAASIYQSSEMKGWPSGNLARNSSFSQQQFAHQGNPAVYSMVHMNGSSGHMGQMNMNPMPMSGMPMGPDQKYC
Experimental: Luciferase assays were performed in HeLa cells transiently transfected with the reporter vector pG5-LUC in combination with expression vectors for pBIND and pBIND-SRC-3 before incubation with the compound for 24 hours. In FIG. 1, the first histogram bar in each set represents pBIND; the second histogram bar in each set represents SRC-1; the third histogram bar in each set represents SRC-2; and the fourth histogram bar in each set represents SRC-3.
Intrinsic transcriptional activity assays were conducted as for FIG. 1. In FIG. 2, the left histogram bar in each set represents pBIND and the right histogram bar in each set represents pBIND-SRC3.
The effects of the SI compounds described herein on the intrinsic transcriptional activities of SRC-1, SRC-2 and SRC-3 were investigated. HeLa cells were transiently transfected with a pGL5-LUC reporter and expression vectors for pBIND and pBIND-SRC-1, pBIND-SRC-2, pBIND-SRC-3, followed by 24 hours of treatment with different concentrations of SI compounds. Compounds as described herein, including SI-9, SI-10, SI-11, SI-12, SI-14, SI-15, SI-16, SI-17, SI-19, SI-20, and SI-21, were tested for their ability to inhibit the intrinsic transcriptional activity of SRC-1, SRC-2 and SRC-3 in FIG. 1.

MDA-MB-468 cells [2] = assay: IC50 in MDA-MB-468 cells, 72 hours incubation; conditions: Homo sapiens
Experimental: (§2) The compounds described herein were synthesized as described in Example 1. The IC50 values were measured in MDA-MB-468, BT-474, and MCF-7 cells by incubating a series of concentrations of the corresponding compounds for 72 hours.
as §1

MCF-7 cells = assay: IC50 in MCF-7 cells, 72 hours incubation; conditions: Homo sapiens, MCF7
Experimental: as §2, §1

BT-474 cells = assay: IC50 in BT-474 cells, 72 hours incubation; conditions: Homo sapiens
Experimental: as §2, §1

| IC50 (MCF-7 cells) [nM] | IC50 (BT-474 cells) [nM] | Compound | effect on SRC-3 intrinsic activity (SRC-3) | also measured |
| --- | --- | --- | --- | --- |
| < 100 | < 100 | C/C(=N\Nc1nc2ccccc2n1C)c1ncccn1 [SI-19] | – | – |
| < 100 | < 100 | C/C(=N\Nc1nc2ccccc2n1C)c1ccc(F)cn1 [SI-21] | – | – |
| < 100 | < 100 | C/C(=N\Nc1nc2cc(F)ccc2n1C)c1ccncn1 [SI-16] | – | – |
| < 100 | < 100 | C/C(=N\Nc1nc2cc(F)ccc2n1C)c1ccc(F)cn1 [SI-17] | – | – |
| < 100 | < 100 | C/C(=N\Nc1nc2ccccc2n1C)c1ccncn1 [SI-20] | – | – |

More lines, now with the values behind:

| Compound | IC50 (MCF-7 cells) [nM] | IC50 (BT-474 cells) [nM] | effect on SRC-3 intrinsic activity (SRC-3) | also measured |
| --- | --- | --- | --- | --- |
| C/C(=N\Nc1nc2ccccc2n1C)c1ncccc1Br [SI-E-01P] | – | – | – | EC50 (MDA-MB-468 cells [1]): 100 to 1000 nM |
| C/C(=N\Nc1nc2ccccc2n1C)c1nccs1 [SI-6] | – | – | able to stimulate SRC-3 intrinsic activity at certain doses | IC50 (MDA-MB-468 cells [2]): 100 to 1000 nM |
| Cn1c(NNC(=O)c2ccccn2)nc2ccccc21 [SI-C-01] | – | – | – | EC50 (MDA-MB-468 cells [1]): 100 to 1000 nM |
| C/C(=N\Nc1nc2ccccc2n1C)c1ccc[nH]1 [SI-3] | – | – | able to stimulate SRC-3 intrinsic activity at certain doses | – |
| C/C(=N\Nc1nc2cc(F)c(F)cc2n1C)c1ncccn1 [SI-10] | < 100 | < 100 | – | – |
| C/C(=N\Nc1nc2ccccc2n1C)c1ncco1 [SI-5] | – | – | able to stimulate SRC-3 intrinsic activity at certain doses | – |
| C/C(=N\Nc1nc2ccccc2n1C)c1cccs1 [SI-8] | – | – | able to stimulate SRC-3 intrinsic activity at certain doses | – |
| C/C(=N\Nc1nc2ccccc2n1C)c1ccco1 [SI-7] | – | – | able to stimulate SRC-3 intrinsic activity at certain doses | – |
| C/C(=N\Nc1nc2cc(F)ccc2n1C)c1ccccn1 [SI-14] | < 100 | < 100 | – | – |
| C/C(=N\Nc1nc2ccccc2n1C)c1nccn1C [SI-4] | – | – | able to stimulate SRC-3 intrinsic activity at certain doses | – |
| C/C(=N\Nc1nc2cc(F)ccc2n1C)c1ncccn1 [SI-15] | < 100 | < 100 | – | – |
| C/C(=N\Nc1nc2cc(F)c(F)cc2n1C)c1ccncn1 [SI-11] | < 100 | < 100 | – | – |
| C/C(=N\Nc1nc2cc(F)c(F)cc2n1C)c1ccccn1 [SI-9] | – | < 100 | – | – |
